From patent publication US10336707B2, “Heterocyclic derivatives modulating activity of certain protein kinases” (EUDENDRON S.R.L., priority 2014, dated 2019)

Legend:
DDR2 wild-type = biological target: T1, DDR2 wild-type (Homo sapiens, UniProt Q16832); assay: Radiometric protein kinase assay (33PanQuinase Activity Assay), DDR2 wild-type; format: biochemical; conditions: ATP 1.0 μM
T1 construct: either as full-length or enzymatically active fragments; purchased ProQinase GmbH (Freiburg, Germany)
T1 sequence (Q16832 22-855): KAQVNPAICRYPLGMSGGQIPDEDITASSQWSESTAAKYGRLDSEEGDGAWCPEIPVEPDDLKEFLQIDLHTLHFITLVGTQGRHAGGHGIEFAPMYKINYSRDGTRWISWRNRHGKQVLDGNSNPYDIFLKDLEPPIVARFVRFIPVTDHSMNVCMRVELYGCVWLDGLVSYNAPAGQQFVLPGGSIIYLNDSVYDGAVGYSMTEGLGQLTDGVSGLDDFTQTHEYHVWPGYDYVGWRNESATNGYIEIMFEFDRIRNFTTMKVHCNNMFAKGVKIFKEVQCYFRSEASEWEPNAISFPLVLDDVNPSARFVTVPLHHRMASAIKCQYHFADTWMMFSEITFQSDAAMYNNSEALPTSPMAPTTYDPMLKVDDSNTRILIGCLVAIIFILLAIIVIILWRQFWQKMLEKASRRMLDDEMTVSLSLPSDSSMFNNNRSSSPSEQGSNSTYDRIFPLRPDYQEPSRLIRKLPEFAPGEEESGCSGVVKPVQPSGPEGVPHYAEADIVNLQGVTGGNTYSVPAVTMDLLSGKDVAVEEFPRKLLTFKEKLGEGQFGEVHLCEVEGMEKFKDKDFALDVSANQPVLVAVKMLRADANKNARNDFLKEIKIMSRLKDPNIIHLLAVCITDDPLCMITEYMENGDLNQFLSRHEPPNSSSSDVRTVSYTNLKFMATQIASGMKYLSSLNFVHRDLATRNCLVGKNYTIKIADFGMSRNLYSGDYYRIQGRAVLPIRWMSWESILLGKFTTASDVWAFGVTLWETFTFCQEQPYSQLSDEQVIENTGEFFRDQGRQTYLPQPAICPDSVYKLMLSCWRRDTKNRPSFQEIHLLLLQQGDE
Protocol: (§1) A proprietary radiometric protein kinase assay (33PanQuinase® Activity Assay) developed by ProQuinase GmbH (Freiburg, Germany) was used for measuring the kinase activity of selected protein kinases. All assays were performed in FlashPlates™ wells 96 Perkin Elmer (Boston, Mass., USA) in a reaction volume of 50 μl. The reaction mixture was obtained in 4 steps in the following order: • 1. 10 μl of a solution of non-radioactive ATP in water; • 2. 25 μl of assay buffer/[γ-^33P]-ATP mixture • 3. 5 μl of test sample in 10% DMSO • 4. 10 μl of enzyme/substrate mixture
(§2) All protein kinases provided by ProQinase were expressed in Sf9 insect cells or in E. coli as recombinant GST-fusion proteins or His-tagged proteins, either as full-length or enzymatically active fragments. […] Kinases from external vendors (CAR=Carna Biosciences Inc.; INV=Life Technologies (Invitrogen Corporation); MIL=Merck-Millipore (Millipore Corporation), were expressed, purified and quality-controlled by virtue of the vendors readings.
(§3) A stock solution of compound of formula (I) was diluted to 5×10-04M/100% DMSO. […] Incorporation of 33Pi (counting of “cpm”) was determined with a microplate scintillation counter (Microbeta, Wallac). […]
(§4) Based on each 10 corresponding residual activities, IC50 values were calculated using Prism 5.04 for Windows (Graphpad, San Diego, Calif.). […]

RET M918T = biological target: T2, RET M918T (Homo sapiens, UniProt P07949, M918T); assay: Radiometric protein kinase assay (33PanQuinase Activity Assay), RET M918T; format: biochemical; conditions: ATP 0.3 μM
T2 construct: either as full-length or enzymatically active fragments; purchased ProQinase GmbH (Freiburg, Germany)
Protocol: as §1, §2, §3, §4

T2 sequence (P07949 29-1114 M918T): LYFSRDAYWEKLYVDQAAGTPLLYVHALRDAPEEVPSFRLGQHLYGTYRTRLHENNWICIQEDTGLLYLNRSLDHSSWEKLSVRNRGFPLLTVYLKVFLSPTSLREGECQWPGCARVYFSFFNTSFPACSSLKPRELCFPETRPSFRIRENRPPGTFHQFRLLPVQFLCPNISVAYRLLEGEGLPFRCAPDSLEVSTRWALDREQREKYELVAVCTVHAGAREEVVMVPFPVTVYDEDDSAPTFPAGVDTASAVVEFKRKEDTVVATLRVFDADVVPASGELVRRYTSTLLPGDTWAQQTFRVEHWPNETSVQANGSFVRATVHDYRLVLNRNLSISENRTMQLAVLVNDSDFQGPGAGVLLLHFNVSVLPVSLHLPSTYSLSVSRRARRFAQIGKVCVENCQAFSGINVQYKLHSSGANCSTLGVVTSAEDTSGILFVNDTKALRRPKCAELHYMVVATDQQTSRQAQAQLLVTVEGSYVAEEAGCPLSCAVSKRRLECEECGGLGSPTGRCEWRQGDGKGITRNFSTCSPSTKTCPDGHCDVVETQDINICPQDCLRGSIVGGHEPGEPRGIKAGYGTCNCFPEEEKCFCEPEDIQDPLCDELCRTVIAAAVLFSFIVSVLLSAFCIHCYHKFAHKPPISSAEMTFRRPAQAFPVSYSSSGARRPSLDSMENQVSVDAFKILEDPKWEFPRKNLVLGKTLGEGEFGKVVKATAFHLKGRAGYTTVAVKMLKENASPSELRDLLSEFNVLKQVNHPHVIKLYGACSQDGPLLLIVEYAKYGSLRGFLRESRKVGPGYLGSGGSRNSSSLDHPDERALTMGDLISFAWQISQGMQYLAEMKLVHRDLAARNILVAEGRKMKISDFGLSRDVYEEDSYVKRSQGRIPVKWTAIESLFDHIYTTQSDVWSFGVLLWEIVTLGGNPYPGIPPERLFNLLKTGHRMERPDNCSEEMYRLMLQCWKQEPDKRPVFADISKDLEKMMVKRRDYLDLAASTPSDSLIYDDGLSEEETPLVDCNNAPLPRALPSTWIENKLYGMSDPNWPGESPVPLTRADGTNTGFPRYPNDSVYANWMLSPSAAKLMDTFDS

## CN1CCN(c2ccc(C(=O)Nc3n[nH]c4cc(-c5ccc(O)cc5)c(Cc5cc(F)cc(F)c5)cc34)c(NC3CCOCC3)c2)CC1 [Example 3, N-[5-[(3,5-difluorophenyl)methyl]-6-(4-hydroxyphenyl)-1H-indazol-3-yl]-4-(4-methylpiperazin-1-yl)-2-(tetrahydropyran-4-ylamino)benzamide]
DDR2 wild-type
  IC50: 150 nM
RET M918T
  IC50: 120 nM
